The values that follow come from patent publication US7018456B2, “Phthalocyanine compound, water-base ink composition and colored material” (Nippon Kayaku Kabushiki Kaisha, priority 2002, dated 2006).

This series in a line: Water-solubility of the phthalocyanine compound. The series is classed as physicochemical. The settings on record: at the ordinary temperature. The protocol: 300 parts of wet cake containing 53.6 parts of tetramino copper phthalocyanine (0.085 mol) were suspended in 360 parts of water in a four-neck flask equipped with a condenser, followed by heating to 60° C. with stirring, dropping 9.5 parts of acetic anhydride (0.093 mol) at the same temperature and stirring at the same temperature for 5 hours. Successively 0.2 parts of hydroquinone and 95.4 parts of acrylic acid […] were added, followed by heating to 80° C. and stirring with keeping the same temperature for 12 hours. Judging from the reaction, mixture of several compounds though it is, the reaction product is found to correspond to a compound which comprises tetramino phthalocyanine having on average one introduced acyl group (acetylamino) and three introduced carboxyethyl per molecule, namely the desired monoacetylamino(2-tricarboxyethylamino) copper phthalocyanine.

For the substance “monoacetylamino(2-tricarboxyethylamino) copper phthalocyanine [Example 5]”, the water-solubility result is reported as “about 10 % by mass”.
